The test has as its target human BACE-1 (Homo sapiens, UniProt P56817). In words: CEREP BACE Inhibition Assay. In kind it is biochemical. As to conditions: recombinant enzyme; for inhibition at 1 µM: read-out: % Inhibition @ 1.0 μM; for IC50: read-out: IC50. On the procedure: More specifically the assay, run at 50 μL in a 96 well plate, evaluated the effect of test compound on the activity of the human BACE-1 quantified by measuring the formation of Mca-S-E-V-N-L-NH2 from […], using a recombinant enzyme. The test compound, reference compound or water (control) were added to a buffer containing 0.09 M sodium acetate (pH 4.5) and 0.25 μg BACE-1. Compound interference with the fluorimetric detection method due to autofluorescence was then checked by measurements at the wavelengths defined to evaluate the enzyme activity. […] For control basal measurement, the substrate was omitted from the reaction mixture. […] The standard inhibitory reference compound was OM99-2, which was tested in each experiment at several concentrations to obtain an inhibition curve from which its IC50 value was calculated.

The mark [1] stands for this setting: percent inhibition of the control activity.

Molecules are shown by their SMILES. Several values for one entry are separate records, joined by “and”; a condition that tells them apart may be missing. Equal entries are not always repeated.

human BACE-1, sequence (P56817 46-501): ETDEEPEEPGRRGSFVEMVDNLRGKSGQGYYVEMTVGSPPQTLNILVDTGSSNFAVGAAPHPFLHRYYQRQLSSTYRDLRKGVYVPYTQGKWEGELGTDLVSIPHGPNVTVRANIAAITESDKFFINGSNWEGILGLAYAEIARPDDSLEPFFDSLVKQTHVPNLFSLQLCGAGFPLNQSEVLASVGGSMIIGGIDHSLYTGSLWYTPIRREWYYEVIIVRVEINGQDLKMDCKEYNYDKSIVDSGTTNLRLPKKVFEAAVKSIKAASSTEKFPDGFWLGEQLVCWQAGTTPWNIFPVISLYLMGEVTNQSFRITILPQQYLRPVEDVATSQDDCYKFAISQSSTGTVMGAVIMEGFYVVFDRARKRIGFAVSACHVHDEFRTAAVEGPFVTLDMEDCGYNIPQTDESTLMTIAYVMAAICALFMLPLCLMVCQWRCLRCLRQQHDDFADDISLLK

For orientation: inhibition means the drop in the measured response relative to a control, in per cent. By IC50 is commonly meant the concentration needed to halve the response being measured. As to `CC(C)(C)OC[C@@H](NC(=O)CC[C@@H](C1CCCCC1)N1Cc2cc(Oc3ccccc3)ncc2N=C1N)C(=O)N[C@@H](CCC(=O)O)C(=O)O` [Compound 224], the IC50 is 82 nM. The inhibition at 1 µM under setting [1] is 100%.
The corresponding values for `CC(C)(C)OCCNC(=O)CC[C@@H](C1CCCCC1)N1Cc2cc(Oc3ccccc3)ncc2N=C1N` [Compound 181] are 85 nM and 96%.
In the same order, the values of `NC1=Nc2cnc(Oc3ccccc3)cc2CN1[C@@H](CCC(=O)N(CCOCCOCCOCCO)C1CCCCC1)C1CCCCC1` [Compound 176, 4-(2-Amino-6-phenoxy-4H-pyrido[3,4-d]pyrimidin-3-yl)-4-(S),N-dicyclohexyl-N-(2-{2-[2-(2-hydroxy-ethoxy)-ethoxy]-ethoxy}-ethyl)-butyramide] are 140 nM and 101%.
Take `CN(CC[C@@H](C1CCCCC1)N1Cc2cc(Oc3ccccc3)ncc2N=C1N)C1CCCCC1` [Compound 206]: the IC50 was 180 nM and 120 nM. Further, under setting [1], the “% Inhibition @ 1.0 μM” value came to 90% and the inhibition at 1 µM came to 91%.
On to `CC(C)(C)CNC(=O)C[C@@H](C1CCCCC1)N1Cc2cc(Oc3ccccc3)ncc2N=C1N` [Compound 200], for which the IC50 is 780 nM and 760 nM. Under setting [1], the “% Inhibition @ 1.0 μM” value is listed as 53% and the inhibition at 1 µM was determined as 50%.
For `NC1=Nc2cnc(Oc3ccccc3)cc2CN1[C@@H](CCCNC[C@H]1CCCO1)C1CCCCC1` [Compound 211], the IC50 amounted to 160 nM. In addition, the inhibition at 1 µM under setting [1] was found to be 88%.
In the same order, the values of `CC(C)[C@H](COCC1CCCCC1)N1Cc2cc(Oc3ccccc3)ncc2N=C1N` [Compound 234] are 180 nM and 94%.
For `CC(C)(C)OC[C@H](NC(=O)CC[C@@H](C1CCCCC1)N1Cc2cc(Oc3ccccc3)ncc2N=C1N)C(=O)O` [Compound 62], the IC50 was 250 nM. Under setting [1], the inhibition at 0.3 µM amounted to 65%.
In the case of `NC1=Nc2cnc(Oc3ccccc3)cc2CN1[C@@H](CCC(=O)N1CCC[C@H]1CO)C1CCCCC1` [Compound 143], the IC50 was 1200 nM. Also, the inhibition at 1 µM under setting [1] was 65%.
In the same order, the values of `CC(C)(C)OC(=O)N1CCC(NC(=O)CC[C@@H](C2CCCCC2)N2Cc3cc(Oc4ccccc4)ncc3N=C2N)CC1` [Compound 150] are 170 nM and 95%.
For the compound `C[C@@H](CO)NC(=O)[C@@H](COC(C)(C)C)NC(=O)CC[C@@H](C1CCCCC1)N1Cc2cc(Oc3ccccc3)ncc2N=C1N` [Compound 108], the IC50 turned out to be 140 nM. For the same compound, under setting [1], the inhibition at 0.3 µM was 94%.
In the same order, the values of `CC(CO)NC(=O)C(COC(C)(C)C)NC(=O)CCC(C1CCCCC1)N1Cc2cc(Oc3ccccc3)ncc2N=C1N` (centres unmarked) [Compound 109] are 120 nM and 95%.
As to `COC(=O)[C@H](COC(C)(C)C)NC(=O)CC[C@@H](C(C)C)N1Cc2cc(Oc3ccccc3)ncc2N=C1N` [Compound 69], the half-maximal inhibitory concentration (IC50) was determined as 340 nM. Also, under setting [1], the inhibition at 0.3 µM was 57%.
Take `NC1=Nc2cnc(Oc3ccccc3)cc2CN1[C@@H](CCC(=O)N1CCOCC1)C1CCCCC1` [Compound 166]: the IC50 stood at 200 nM. The inhibition at 1 µM under setting [1] was 85%.
In the same order, the values of `CC(C)(C)OCCN(Cc1cncs1)C(=O)CC[C@@H](C1CCCCC1)N1Cc2cc(Oc3ccccc3)ncc2N=C1N` [Compound 159] are 110 nM and 102%.
On to `CN(C(=O)CC[C@@H](C1CCOCC1)N1Cc2cc(Oc3ccccc3)ncc2N=C1N)[C@@H](COCc1ccccc1)C(=O)O` [Compound 58], for which the IC50 amounted to 270 nM. Also, the inhibition at 0.3 µM under setting [1] came to 57%.
In the case of `Cc1nc([C@H](COC(C)(C)C)NC(=O)CC[C@@H](C2CCCCC2)N2Cc3cc(Oc4ccccc4)ncc3N=C2N)no1` [Compound 110], the IC50 turned out to be 62 nM. The inhibition at 1 µM under setting [1] stood at 90%.
In the same order, the values of `CN(CCO)C(=O)CC[C@@H](C1CCCCC1)N1Cc2cc(Oc3ccccc3)ncc2N=C1N` [Compound 171] are 270 nM and 77%.
As to `CC(C)[C@H](CCC(=O)N[C@@H](COC(C)(C)C)C(=O)O)N1Cc2cc(Oc3ccccc3)ncc2N=C1N` [Compound 70], the IC50 was 260 nM. Moreover, the inhibition at 0.3 µM under setting [1] was determined as 66%.
As to `CC(C)[C@H](COCCC1CCCCC1)N1Cc2cc(Oc3ccccc3)ncc2N=C1N` [Compound 232, 3-[1-(2-cyclohexyl-ethoxymethyl)-(R)-(2-methyl-propyl)]-6-phenoxy-3,4-dihydro-pyrido[3,4-d]pyrimidin-2-ylamine], the IC50 was 110 nM. Under setting [1], the inhibition at 1 µM amounted to 99%.
The corresponding values for `CC(C)(C)CNC(=O)CC[C@@H](CC1CCOCC1)N1Cc2cc(Oc3ccccc3)ncc2N=C1N` [Compound 219] are 640 nM and 64%.
The corresponding values for `NC1=Nc2cnc(Oc3ccccc3)cc2CN1[C@@H](CCC(=O)NC[C@H]1CCCO1)C1CCCCC1` [Compound 210] are 120 nM and 98%.
In the same order, the values of `COCCN(CCOC)C(=O)CC[C@@H](C1CCCCC1)N1Cc2cc(Oc3ccccc3)ncc2N=C1N` [Compound 142] are 200 nM and 90%.
Turning to `NC1=Nc2cnc(Oc3ccccc3)cc2CN1[C@@H](CCC(=O)N1CCCC[C@H]1CC(=O)O)C1CCCCC1` [Compound 93], the IC50 is 110 nM. Also, the inhibition at 0.3 µM under setting [1] is 94%.
Take `C[C@H](CO)N(C)CCC[C@@H](C1CCCCC1)N1Cc2cc(Oc3ccccc3)ncc2N=C1N` [Compound 184]: the IC50 amounted to 2300 nM. In addition, the inhibition at 1 µM under setting [1] is 45%.
Turning to `CC(C)[C@H](CCC(=O)N[C@H](COC(C)(C)C)C(=O)N1CCCCC1)N1Cc2cc(Oc3ccccc3)ncc2N=C1N` [Compound 98], the IC50 is 150 nM. Besides, under setting [1], the inhibition at 0.3 µM stood at 72%.
In the same order, the values of `CC(C)[C@H](CCC(=O)N[C@@H](COC(C)(C)C)CN1CCCCC1)N1Cc2cc(Oc3ccccc3)ncc2N=C1N` [Compound 101] are 320 nM and 43%.
As for `NC1=Nc2cnc(Oc3ccccc3)cc2CN1[C@@H](CN1C(=O)NC2(CCCCC2)C1=O)C1CCCCC1` [Compound 229, 3-[2-(2-Amino-6-phenoxy-4H-pyrido[3,4-d]pyrimidin-3-yl)-2-(R)-cyclohexyl-ethyl]-1,3-diaza-spiro[4.5]decane-2,4-dione], the IC50 was 390 nM. Also, the inhibition at 1 µM under setting [1] was found to be 78%.
`CC(C)(C)c1cn(C[C@@H](C2CCCCC2)N2Cc3cc(Oc4ccccc4)ncc3N=C2NN)nn1` [Compound 245, {3-[2-(4-tert-Butyl-[1,2,3]triazol-1-yl)-1-(R)-cyclohexyl-ethyl]-6-phenoxy-3,4-dihydro-pyrido[3,4-d]pyrimidin-2-yl}-hydrazine]: the inhibition at 10 µM (10.0 μM, percent inhibition of the control activity) came out at 29%.
For `CC(C)CNC(=O)CC[C@@H](C1CCCCC1)N1Cc2cc(Oc3ccccc3)ncc2N=C1N` [Compound 208], the IC50 is 130 nM. Under setting [1], the inhibition at 1 µM was found to be 98%.
Turning to `CN(CCC[C@@H](C1CCCCC1)N1Cc2cc(Oc3ccccc3)ncc2N=C1N)C1CCCCC1` [Compound 187], the IC50 was 44 nM. Also, under setting [1], the inhibition at 1 µM came to 99%.
As to `CC(C)[C@H](COCc1cc(C(C)(C)C)no1)N1Cc2cc(Oc3ccccc3)ncc2N=C1N` [Compound 237], the IC50 worked out at 270 nM. Further, under setting [1], the inhibition at 1 µM was found to be 87%.
